Measured values reported in patent US20260226493A1, “HERBICIDE RESISTANT PLANTS” (SYNGENTA CROP PROTECTION AG, priority 2023, published 2026).

Tests used:
[1] = tested on: D4539 (Escherichia coli MTP BioA) containing tobacco plants; assay: Visual herbicide damage score on transgenic tobacco D4539 (pBin TMV MTP EcBioA); type: in vivo; conditions: 600 gai/ha
Source text: (§1) In order to determine if the overexpressed gene detailed in Example 3 confers resistance to BIO3-BIO1 inhibiting compounds when expressed in plants, GM tobacco lines were produced and tested with BIO3-BIO1 inhibiting compounds. Transgenic tobacco plants expressing the Escherichia coli BioA gene with (SEQ ID NO:203) and without a mitochondrial signal peptide (SEQ ID NO: 202).
(§2) Populations of transgenic tobacco comprising 20-30 transgenic events per plant transformation constructs were generated as described in Example 1. These lines were clonally propagated and 1 clone per event was sprayed with 600 g ai/ha compound L or A+0.2% Genapol X080 with a spray volume of 200 L/Ha (“g ai/ha” refers to grams of active compound per hectare).
(§3) […] A score of 0 indicates no visible damage or stunting whereas a score of 100 indicates a complete death of the plant. 20 transgenic events (i.e. individual transgenic plants) from each GM tobacco line were transplanted to soil 1 week prior to spraying with BIO3-BIO1 inhibiting compounds. WT tobacco was included as a control.

[2] = tested on: D4555 (Escherichia coli BioA) containing tobacco plants; assay: Visual herbicide damage score on transgenic tobacco D4555 (pCMP MTP EcBioA); type: in vivo; conditions: 600 gai/ha, replicate clones A, B, C of events 8480, 8526
Source text: as §1, §2, §3
• D4555 (Escherichia coli BioA) containing tobacco plants; 04602 (Pantoea ananatis BioA) containing tobacco plants; 04603 (Stenotrophomonas maltophilia BioA) containing tobacco plants; 04609 (Chroococcidiopsis sp. CCMEE 29 BioA) containing tobacco plants; 04611 (Bacillus subtilis BioA) containing tobacco plants; 04606 (Streptomyces viridochromogenes BioA) containing tobacco plants; 04607 (Pedobacter hartonius BioA) containing tobacco plants; 04608 (Chitinophaga filiformis BioA) containing tobacco plants; and 04610 (Tenacibaculum adriaticum BioA) containing tobacco plants, are shown in the “TABLES” section below in Tables 16 to 24 respectively.

## CCn1c(Cn2ccc(C(F)(F)F)n2)cc(=O)c(C(=O)O)c1-c1ccc(Cl)c(Cl)c1 [Compound L, 2-(3,4-dichlorophenyl)-1-ethyl-4-oxo-6-[[3-(trifluoromethyl)pyrazol-1-yl]methyl]pyridine-3-carboxylic acid]
[1]; D4539 event 8385, 7 DAT
  percentage of damage (herbicide damage score): 10%
[1]; D4539 event 8385, 14 DAT
  percentage of damage (herbicide damage score): 0%
[1]; D4539 event 8385, 21 DAT
  percentage of damage (herbicide damage score): 0%
[1]; D4539 event 8386, 7 DAT
  percentage of damage (herbicide damage score): 7%
[1]; D4539 event 8386, 14 DAT
  percentage of damage (herbicide damage score): 0%
[1]; D4539 event 8386, 21 DAT
  percentage of damage (herbicide damage score): 0%
[1]; D4539 event 8399, 7 DAT
  percentage of damage (herbicide damage score): 2%
[1]; D4539 event 8399, 14 DAT
  percentage of damage (herbicide damage score): 0%
[1]; D4539 event 8399, 21 DAT
  percentage of damage (herbicide damage score): 0%
[1]; D4539 event 8402, 7 DAT
  percentage of damage (herbicide damage score): 3%
[1]; D4539 event 8402, 14 DAT
  percentage of damage (herbicide damage score): 0%
[1]; D4539 event 8402, 21 DAT
  percentage of damage (herbicide damage score): 0%
[1]; D4539 event 8414, 7 DAT
  percentage of damage (herbicide damage score): 2%
[1]; D4539 event 8414, 14 DAT
  percentage of damage (herbicide damage score): 0%
[1]; D4539 event 8414, 21 DAT
  percentage of damage (herbicide damage score): 0%
[1]; D4539 event 8415, 7 DAT
  percentage of damage (herbicide damage score): 7%
[1]; D4539 event 8415, 14 DAT
  percentage of damage (herbicide damage score): 0%
[1]; D4539 event 8415, 21 DAT
  percentage of damage (herbicide damage score): 0%
[1]; D4539 event 8417, 7 DAT
  percentage of damage (herbicide damage score): 2%
[1]; D4539 event 8417, 14 DAT
  percentage of damage (herbicide damage score): 0%
[1]; D4539 event 8417, 21 DAT
  percentage of damage (herbicide damage score): 20%
[1]; D4539 event 8418, 7 DAT
  percentage of damage (herbicide damage score): 10%
[1]; D4539 event 8418, 14 DAT
  percentage of damage (herbicide damage score): 25%
[1]; D4539 event 8418, 21 DAT
  percentage of damage (herbicide damage score): 60%
[1]; D4539 event 8423, 7 DAT
  percentage of damage (herbicide damage score): 2%
[1]; D4539 event 8423, 14 DAT
  percentage of damage (herbicide damage score): 0%
[1]; D4539 event 8423, 21 DAT
  percentage of damage (herbicide damage score): 0%
[1]; D4539 event 8424, 7 DAT
  percentage of damage (herbicide damage score): 65%
[1]; D4539 event 8424, 14 DAT
  percentage of damage (herbicide damage score): 85%
[1]; D4539 event 8424, 21 DAT
  percentage of damage (herbicide damage score): 90%
[1]; D4539 event 8426, 7 DAT
  percentage of damage (herbicide damage score): 2%
[1]; D4539 event 8426, 14 DAT
  percentage of damage (herbicide damage score): 0%
[1]; D4539 event 8426, 21 DAT
  percentage of damage (herbicide damage score): 0%
[1]; D4539 event 8433, 7 DAT
  percentage of damage (herbicide damage score): 5%
[1]; D4539 event 8433, 14 DAT
  percentage of damage (herbicide damage score): 0%
[1]; D4539 event 8433, 21 DAT
  percentage of damage (herbicide damage score): 0%
[1]; D4539 event 8434, 7 DAT
  percentage of damage (herbicide damage score): 2%
[1]; D4539 event 8434, 14 DAT
  percentage of damage (herbicide damage score): 0%
[1]; D4539 event 8434, 21 DAT
  percentage of damage (herbicide damage score): 35%
[1]; D4539 event 8438, 7 DAT
  percentage of damage (herbicide damage score): 15%
[1]; D4539 event 8438, 14 DAT
  percentage of damage (herbicide damage score): 85%
[1]; D4539 event 8438, 21 DAT
  percentage of damage (herbicide damage score): 95%
[1]; D4539 event 8439, 7 DAT
  percentage of damage (herbicide damage score): 2%
[1]; D4539 event 8439, 14 DAT
  percentage of damage (herbicide damage score): 0%
[1]; D4539 event 8439, 21 DAT
  percentage of damage (herbicide damage score): 0%
[1]; D4539 event 8447, 7 DAT
  percentage of damage (herbicide damage score): 2%
[1]; D4539 event 8447, 14 DAT
  percentage of damage (herbicide damage score): 0%
[1]; D4539 event 8447, 21 DAT
  percentage of damage (herbicide damage score): 0%
[1]; D4539 event 8448, 7 DAT
  percentage of damage (herbicide damage score): 2%
[1]; D4539 event 8448, 14 DAT
  percentage of damage (herbicide damage score): 0%
[1]; D4539 event 8448, 21 DAT
  percentage of damage (herbicide damage score): 0%
[1]; D4539 event 8460, 7 DAT
  percentage of damage (herbicide damage score): 2%
[1]; D4539 event 8460, 14 DAT
  percentage of damage (herbicide damage score): 0%
[1]; D4539 event 8460, 21 DAT
  percentage of damage (herbicide damage score): 0%
[1]; D4539 event 8461, 7 DAT
  percentage of damage (herbicide damage score): 17%
[1]; D4539 event 8461, 14 DAT
  percentage of damage (herbicide damage score): 75%
[1]; D4539 event 8461, 21 DAT
  percentage of damage (herbicide damage score): 90%
[1]; D4539 event 8462, 7 DAT
  percentage of damage (herbicide damage score): 2%
[1]; D4539 event 8462, 14 DAT
  percentage of damage (herbicide damage score): 0%
[1]; D4539 event 8462, 21 DAT
  percentage of damage (herbicide damage score): 3%
[2]; 7 DAT
  percentage of damage: 0%
[2]; 14 DAT
  percentage of damage: 0%
[2]; 21 DAT
  percentage of damage: 0%
